Assay results taken from ChEMBL document CHEMBL4507287, “Data for DCP probe MRL-650” (2021).

Assays:
[1] = target: Cyclin-dependent kinase 4 (Homo sapiens) (UniProt P11802); conditions: Compound concentration 1000.0 nM
[2] = target: Serine/threonine-protein kinase VRK2 (Homo sapiens) (UniProt Q86Y07); conditions: Compound concentration 1000.0 nM
[3] = target: Myotonin-protein kinase (Homo sapiens) (UniProt Q09013); conditions: Compound concentration 1000.0 nM
[4] = target: Cytoplasmic tyrosine-protein kinase BMX (Homo sapiens) (UniProt P51813); conditions: Compound concentration 1000.0 nM
[5] = target: Proto-oncogene tyrosine-protein kinase ROS (Homo sapiens) (UniProt P08922); conditions: Compound concentration 1000.0 nM
[6] = target: Ribosomal protein S6 kinase alpha-2 (Homo sapiens) (UniProt Q15349); conditions: Compound concentration 1000.0 nM
[7] = target: Serine/threonine-protein kinase LATS1 (Homo sapiens) (UniProt O95835); conditions: Compound concentration 1000.0 nM
[8] = target: Citron Rho-interacting kinase (Homo sapiens) (UniProt O14578); conditions: Compound concentration 1000.0 nM
[9] = target: Serine/threonine-protein kinase OSR1 (Homo sapiens) (UniProt O95747); conditions: Compound concentration 1000.0 nM
[10] = target: Ribosomal protein S6 kinase alpha-5 (Homo sapiens) (UniProt O75582); conditions: Compound concentration 1000.0 nM
Chain of Ribosomal protein S6 kinase alpha-5 (Homo sapiens) (O75582 whole entry, looked up): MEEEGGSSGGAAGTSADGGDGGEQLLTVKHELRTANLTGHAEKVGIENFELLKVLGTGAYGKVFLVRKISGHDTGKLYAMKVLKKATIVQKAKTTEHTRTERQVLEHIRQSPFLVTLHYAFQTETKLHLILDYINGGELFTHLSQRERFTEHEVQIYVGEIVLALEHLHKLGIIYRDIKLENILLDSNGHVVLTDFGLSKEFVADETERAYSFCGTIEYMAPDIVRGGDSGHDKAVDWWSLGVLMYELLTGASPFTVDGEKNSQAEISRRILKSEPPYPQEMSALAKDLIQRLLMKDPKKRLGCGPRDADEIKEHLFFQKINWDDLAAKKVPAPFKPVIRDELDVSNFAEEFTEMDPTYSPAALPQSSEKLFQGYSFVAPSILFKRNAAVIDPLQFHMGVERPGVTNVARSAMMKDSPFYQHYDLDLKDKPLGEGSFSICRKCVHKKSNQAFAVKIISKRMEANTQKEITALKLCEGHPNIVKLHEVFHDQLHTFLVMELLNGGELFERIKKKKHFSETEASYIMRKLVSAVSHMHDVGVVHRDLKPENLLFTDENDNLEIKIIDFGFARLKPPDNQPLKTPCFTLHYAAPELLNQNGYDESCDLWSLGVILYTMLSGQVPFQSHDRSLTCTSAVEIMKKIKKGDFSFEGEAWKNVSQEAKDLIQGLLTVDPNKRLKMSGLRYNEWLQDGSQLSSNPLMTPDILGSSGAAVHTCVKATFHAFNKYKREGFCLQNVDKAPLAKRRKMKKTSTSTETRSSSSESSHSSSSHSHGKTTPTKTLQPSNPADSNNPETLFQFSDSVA

[11] = system: Epidermal growth factor receptor (Homo sapiens), P00533 [UNDEFINED MUTATION]; conditions: Compound concentration 1000.0 nM
Chain of Epidermal growth factor receptor (Homo sapiens), P00533 [UNDEFINED MUTATION] (P00533 whole entry, looked up, stated change not applied): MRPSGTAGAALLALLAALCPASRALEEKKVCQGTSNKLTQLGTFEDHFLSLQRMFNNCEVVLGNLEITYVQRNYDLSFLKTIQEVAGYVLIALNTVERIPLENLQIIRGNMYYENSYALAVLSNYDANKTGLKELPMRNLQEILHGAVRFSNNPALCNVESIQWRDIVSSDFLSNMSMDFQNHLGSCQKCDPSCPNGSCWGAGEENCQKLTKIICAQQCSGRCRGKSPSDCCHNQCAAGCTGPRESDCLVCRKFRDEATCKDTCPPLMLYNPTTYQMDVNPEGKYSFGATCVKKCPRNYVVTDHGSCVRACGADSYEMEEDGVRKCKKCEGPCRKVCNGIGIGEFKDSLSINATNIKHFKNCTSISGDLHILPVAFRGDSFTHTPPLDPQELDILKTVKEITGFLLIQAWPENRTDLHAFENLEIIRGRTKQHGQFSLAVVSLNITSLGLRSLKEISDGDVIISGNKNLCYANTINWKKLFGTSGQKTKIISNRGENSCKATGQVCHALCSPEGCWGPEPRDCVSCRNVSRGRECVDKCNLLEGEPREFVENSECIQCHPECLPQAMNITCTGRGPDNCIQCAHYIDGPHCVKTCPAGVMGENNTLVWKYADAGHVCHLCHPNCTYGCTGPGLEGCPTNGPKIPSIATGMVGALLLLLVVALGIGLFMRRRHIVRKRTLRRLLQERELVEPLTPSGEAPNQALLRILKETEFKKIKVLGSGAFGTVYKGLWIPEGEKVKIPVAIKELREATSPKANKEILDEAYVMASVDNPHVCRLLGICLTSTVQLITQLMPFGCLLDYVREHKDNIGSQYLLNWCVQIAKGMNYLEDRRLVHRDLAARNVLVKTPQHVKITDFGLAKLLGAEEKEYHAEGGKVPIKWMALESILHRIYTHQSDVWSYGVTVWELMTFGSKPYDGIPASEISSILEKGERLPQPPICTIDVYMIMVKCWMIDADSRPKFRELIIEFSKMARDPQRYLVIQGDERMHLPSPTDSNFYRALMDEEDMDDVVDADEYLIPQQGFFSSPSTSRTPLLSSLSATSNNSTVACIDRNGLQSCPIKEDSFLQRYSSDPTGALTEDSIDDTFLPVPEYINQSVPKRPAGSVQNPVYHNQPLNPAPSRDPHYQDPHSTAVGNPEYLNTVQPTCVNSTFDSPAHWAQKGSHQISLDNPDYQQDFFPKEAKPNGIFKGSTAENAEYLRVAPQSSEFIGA

[12] = target: Ephrin type-B receptor 3 (Homo sapiens) (UniProt P54753); conditions: Compound concentration 1000.0 nM
[13] = target: Calcium/calmodulin-dependent protein kinase kinase 2 (Homo sapiens) (UniProt Q96RR4); conditions: Compound concentration 1000.0 nM
[14] = system: Epidermal growth factor receptor (Homo sapiens), P00533 [UNDEFINED MUTATION]; conditions: Compound concentration 1000.0 nM; remark: listed apart in the source
[15] = system: Proto-oncogene tyrosine-protein kinase receptor Ret (Homo sapiens), P07949 [V804L]; conditions: Compound concentration 1000.0 nM
[16] = target: TGF-beta receptor type-1 (Homo sapiens) (UniProt P36897); conditions: Compound concentration 1000.0 nM
Chain of TGF-beta receptor type-1 (Homo sapiens) (P36897 whole entry, the tested form may be a part): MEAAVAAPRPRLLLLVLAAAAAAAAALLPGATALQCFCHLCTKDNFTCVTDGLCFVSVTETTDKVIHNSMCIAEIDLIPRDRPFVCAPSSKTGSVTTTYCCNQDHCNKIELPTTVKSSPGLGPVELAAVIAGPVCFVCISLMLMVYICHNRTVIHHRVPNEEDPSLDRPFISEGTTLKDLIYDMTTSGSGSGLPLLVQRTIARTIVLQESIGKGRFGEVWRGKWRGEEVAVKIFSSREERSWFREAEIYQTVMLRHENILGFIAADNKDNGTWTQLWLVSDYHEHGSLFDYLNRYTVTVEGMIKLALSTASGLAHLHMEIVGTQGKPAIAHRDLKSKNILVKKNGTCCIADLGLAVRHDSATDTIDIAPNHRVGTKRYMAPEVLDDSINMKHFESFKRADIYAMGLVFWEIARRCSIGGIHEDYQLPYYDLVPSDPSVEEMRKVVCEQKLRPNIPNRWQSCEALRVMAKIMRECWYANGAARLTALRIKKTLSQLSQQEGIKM

[17] = target: Phosphatidylinositol 3-kinase C2 domain-containing subunit gamma (Homo sapiens) (UniProt O75747); conditions: Compound concentration 1000.0 nM
[18] = system: Hepatocyte growth factor receptor (Homo sapiens), P08581 [Y1235D]; conditions: Compound concentration 1000.0 nM
[19] = target: Serine/threonine-protein kinase Chk1 (Homo sapiens) (UniProt O14757); conditions: Compound concentration 1000.0 nM
[20] = target: 3-phosphoinositide-dependent protein kinase 1 (Homo sapiens) (UniProt O15530); conditions: Compound concentration 1000.0 nM
[21] = system: Phosphatidylinositol 4,5-bisphosphate 3-kinase catalytic subunit alpha isoform (Homo sapiens), P42336 [E545K]; conditions: Compound concentration 1000.0 nM
[22] = target: Muscarinic acetylcholine receptor M4 (Homo sapiens) (UniProt P08173); conditions: Compound concentration 10.0 uM
[23] = target: Ribosomal protein S6 kinase alpha-4 (Homo sapiens) (UniProt O75676); conditions: Compound concentration 1000.0 nM
[24] = target: Ribosomal protein S6 kinase alpha-6 (Homo sapiens) (UniProt Q9UK32); conditions: Compound concentration 1000.0 nM
[25] = target: Transient receptor potential cation channel subfamily M member 6 (Homo sapiens) (UniProt Q9BX84); conditions: Compound concentration 1000.0 nM
[26] = target: RAF proto-oncogene serine/threonine-protein kinase (Homo sapiens) (UniProt P04049); conditions: Compound concentration 1000.0 nM
[27] = target: 5'-AMP-activated protein kinase catalytic subunit alpha-1 (Homo sapiens) (UniProt Q13131); conditions: Compound concentration 1000.0 nM
[28] = target: LIM domain kinase 2 (Homo sapiens) (UniProt P53671); conditions: Compound concentration 1000.0 nM
[29] = target: Leukocyte tyrosine kinase receptor (Homo sapiens) (UniProt P29376); conditions: Compound concentration 1000.0 nM
[30] = system: Leucine-rich repeat serine/threonine-protein kinase 2 (Homo sapiens), Q5S007 [G2019S]; conditions: Compound concentration 1000.0 nM
[31] = target: Phosphatidylinositol 4,5-bisphosphate 3-kinase catalytic subunit gamma isoform (Homo sapiens) (UniProt P48736); conditions: Compound concentration 1000.0 nM
[32] = target: TRAF2 and NCK-interacting protein kinase (Homo sapiens) (UniProt Q9UKE5); conditions: Compound concentration 1000.0 nM
[33] = target: Tyrosine-protein kinase Blk (Homo sapiens) (UniProt P51451); conditions: Compound concentration 1000.0 nM
[34] = target: Dual specificity protein kinase CLK2 (Homo sapiens) (UniProt P49760); conditions: Compound concentration 1000.0 nM
[35] = target: Ribosomal protein S6 kinase alpha-1 (Homo sapiens) (UniProt Q15418); conditions: Compound concentration 1000.0 nM
Chain of Ribosomal protein S6 kinase alpha-1 (Homo sapiens) (Q15418 whole entry): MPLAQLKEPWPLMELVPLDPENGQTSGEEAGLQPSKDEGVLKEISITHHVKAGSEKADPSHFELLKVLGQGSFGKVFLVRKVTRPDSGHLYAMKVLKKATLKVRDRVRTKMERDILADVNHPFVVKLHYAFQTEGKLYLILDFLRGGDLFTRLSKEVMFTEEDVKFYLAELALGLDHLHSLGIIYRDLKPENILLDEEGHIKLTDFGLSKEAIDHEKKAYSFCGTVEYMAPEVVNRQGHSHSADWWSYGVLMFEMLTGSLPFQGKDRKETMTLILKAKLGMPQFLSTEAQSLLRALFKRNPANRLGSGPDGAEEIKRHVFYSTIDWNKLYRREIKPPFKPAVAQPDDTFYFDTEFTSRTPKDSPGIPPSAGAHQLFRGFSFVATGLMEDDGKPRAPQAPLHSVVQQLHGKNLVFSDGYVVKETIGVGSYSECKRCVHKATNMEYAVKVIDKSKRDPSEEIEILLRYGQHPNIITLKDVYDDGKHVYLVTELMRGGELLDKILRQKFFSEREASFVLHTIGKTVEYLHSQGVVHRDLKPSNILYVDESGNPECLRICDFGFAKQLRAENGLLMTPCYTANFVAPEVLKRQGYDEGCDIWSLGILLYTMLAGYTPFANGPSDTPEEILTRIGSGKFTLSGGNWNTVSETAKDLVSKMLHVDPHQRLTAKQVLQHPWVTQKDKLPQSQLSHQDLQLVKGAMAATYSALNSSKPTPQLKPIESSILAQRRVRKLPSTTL

[36] = target: Serine/threonine-protein kinase 33 (Homo sapiens) (UniProt Q9BYT3); conditions: Compound concentration 1000.0 nM
[37] = system: Fibroblast growth factor receptor 3 (Homo sapiens), P22607 [G697C]; conditions: Compound concentration 1000.0 nM
[38] = target: Tyrosine-protein kinase Fes/Fps (Homo sapiens) (UniProt P07332); conditions: Compound concentration 1000.0 nM
Chain of Tyrosine-protein kinase Fes/Fps (Homo sapiens) (P07332 whole entry): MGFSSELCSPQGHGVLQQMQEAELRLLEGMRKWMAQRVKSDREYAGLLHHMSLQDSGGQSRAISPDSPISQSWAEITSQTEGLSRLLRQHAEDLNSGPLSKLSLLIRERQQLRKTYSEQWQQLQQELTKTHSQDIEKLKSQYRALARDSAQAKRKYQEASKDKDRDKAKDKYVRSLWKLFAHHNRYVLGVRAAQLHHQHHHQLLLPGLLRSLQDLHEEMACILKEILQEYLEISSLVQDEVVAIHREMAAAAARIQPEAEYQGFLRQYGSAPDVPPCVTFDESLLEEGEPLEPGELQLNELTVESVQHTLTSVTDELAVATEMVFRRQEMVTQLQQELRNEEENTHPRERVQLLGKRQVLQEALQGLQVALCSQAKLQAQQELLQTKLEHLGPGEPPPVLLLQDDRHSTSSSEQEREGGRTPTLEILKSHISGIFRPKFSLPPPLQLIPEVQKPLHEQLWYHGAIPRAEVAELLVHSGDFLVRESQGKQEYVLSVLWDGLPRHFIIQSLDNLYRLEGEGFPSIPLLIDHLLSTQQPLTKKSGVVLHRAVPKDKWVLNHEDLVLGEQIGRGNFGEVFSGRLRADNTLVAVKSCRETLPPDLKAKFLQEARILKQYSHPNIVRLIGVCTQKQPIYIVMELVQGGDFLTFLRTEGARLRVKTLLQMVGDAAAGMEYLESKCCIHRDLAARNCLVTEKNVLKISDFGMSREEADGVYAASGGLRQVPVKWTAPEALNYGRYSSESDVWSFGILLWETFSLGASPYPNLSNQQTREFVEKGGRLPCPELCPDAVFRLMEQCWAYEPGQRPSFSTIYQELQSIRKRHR

[39] = target: Cyclin-dependent kinase-like 2 (Homo sapiens) (UniProt Q92772); conditions: Compound concentration 1000.0 nM
[40] = target: 5-hydroxytryptamine receptor 5A (Homo sapiens) (UniProt P47898); conditions: Compound concentration 10.0 uM
[41] = system: Proto-oncogene tyrosine-protein kinase receptor Ret (Homo sapiens), P07949 [V804M]; conditions: Compound concentration 1000.0 nM
[42] = target: Atypical kinase COQ8A, mitochondrial (Homo sapiens) (UniProt Q8NI60); conditions: Compound concentration 1000.0 nM
[43] = target: Phosphorylase b kinase gamma catalytic chain, skeletal muscle/heart isoform (Homo sapiens) (UniProt Q16816); conditions: Compound concentration 1000.0 nM
Chain of Phosphorylase b kinase gamma catalytic chain, skeletal muscle/heart isoform (Homo sapiens) (Q16816 whole entry, looked up, canonical isoform): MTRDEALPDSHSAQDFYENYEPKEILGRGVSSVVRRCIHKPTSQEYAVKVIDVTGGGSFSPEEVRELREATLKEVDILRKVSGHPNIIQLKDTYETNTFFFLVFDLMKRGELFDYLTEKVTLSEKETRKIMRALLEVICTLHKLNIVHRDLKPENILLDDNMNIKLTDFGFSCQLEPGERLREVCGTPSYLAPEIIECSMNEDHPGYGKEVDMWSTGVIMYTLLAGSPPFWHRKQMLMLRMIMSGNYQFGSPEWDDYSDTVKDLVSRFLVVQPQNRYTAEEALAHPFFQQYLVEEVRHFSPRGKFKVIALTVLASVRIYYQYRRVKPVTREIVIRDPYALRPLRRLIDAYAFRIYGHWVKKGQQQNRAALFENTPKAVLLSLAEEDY

[44] = target: Beta-3 adrenergic receptor (Homo sapiens, UniProt P13945); conditions: Compound concentration 10.0 uM

Chain of Serine/threonine-protein kinase VRK2 (Homo sapiens) (Q86Y07 whole entry): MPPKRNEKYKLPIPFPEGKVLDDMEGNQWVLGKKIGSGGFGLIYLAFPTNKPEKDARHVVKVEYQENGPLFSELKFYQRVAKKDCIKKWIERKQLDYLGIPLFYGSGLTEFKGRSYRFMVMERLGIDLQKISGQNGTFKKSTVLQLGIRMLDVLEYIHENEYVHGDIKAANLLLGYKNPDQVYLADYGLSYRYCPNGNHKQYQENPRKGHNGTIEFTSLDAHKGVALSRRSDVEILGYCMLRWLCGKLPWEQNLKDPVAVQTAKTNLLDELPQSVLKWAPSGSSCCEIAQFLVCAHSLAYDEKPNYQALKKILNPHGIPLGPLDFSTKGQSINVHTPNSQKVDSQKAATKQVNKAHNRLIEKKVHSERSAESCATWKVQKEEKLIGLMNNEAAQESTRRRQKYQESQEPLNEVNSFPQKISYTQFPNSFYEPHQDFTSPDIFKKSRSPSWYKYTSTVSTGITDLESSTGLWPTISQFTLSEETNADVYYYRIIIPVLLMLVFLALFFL

## CC(=O)c1c(NS(C)(=O)=O)c2cc(-c3ccc(Cl)cc3)c(-c3ccc(Cl)cc3Cl)nc2n(C)c1=O [MRL-CB1-NC]
[1]
  residual activity: 63%
[2]
  residual activity: 100%
[3]
  residual activity: 89%
[4]
  residual activity: 100%
[5]
  residual activity: 100%
[6]
  residual activity: 80%
[7]
  residual activity: 81%
[8]
  residual activity: 96%
[9]
  residual activity: 79%
[10]
  residual activity: 72%
[11]
  residual activity: 100%
[12]
  residual activity: 100%
[13]
  residual activity: 100%
[14]
  residual activity: 100%
[15]
  residual activity: 100%
[16]
  residual activity: 100%
[17]
  residual activity: 91%
[18]
  residual activity: 95%
[19]
  residual activity: 100%
[20]
  residual activity: 100%
[21]
  residual activity: 91%
[22]
  inhibition: 16.2%
[23]
  residual activity: 93%
[24]
  residual activity: 90%
[25]
  residual activity: 100%
[26]
  residual activity: 100%
[27]
  residual activity: 100%
[28]
  residual activity: 91%
[29]
  residual activity: 100%
[30]
  residual activity: 100%
[31]
  residual activity: 82%
[32]
  residual activity: 93%
[33]
  residual activity: 100%
[34]
  residual activity: 100%
[35]
  residual activity: 88%
[36]
  residual activity: 100%
[37]
  residual activity: 100%
[38]
  residual activity: 87%
[39]
  residual activity: 99%
[40]
  inhibition: 39.9%
[41]
  residual activity: 100%
[42]
  residual activity: 100%
[43]
  residual activity: 94%
[44]
  inhibition: 69.3%

## CC(=O)Nc1c(C(C)=O)c(=O)n(C)c2nc(-c3ccc(Cl)cc3Cl)c(-c3ccc(Cl)cc3)cc12 [NAPHTHYRIDINONE]
[1]
  residual activity: 87%
[2]
  residual activity: 100%
[3]
  residual activity: 100%
[4]
  residual activity: 100%
[5]
  residual activity: 99%
[6]
  residual activity: 100%
[7]
  residual activity: 98%
[8]
  residual activity: 100%
[9]
  residual activity: 93%
[10]
  residual activity: 86%
[11]
  residual activity: 100%
[12]
  residual activity: 100%
[13]
  residual activity: 100%
[14]
  residual activity: 92%
[15]
  residual activity: 100%
[16]
  residual activity: 82%
[17]
  residual activity: 63%
[18]
  residual activity: 100%
[19]
  residual activity: 100%
[20]
  residual activity: 100%
[21]
  residual activity: 79%
[22]
  inhibition: 0.711%
[23]
  residual activity: 100%
[24]
  residual activity: 100%
[25]
  residual activity: 100%
[26]
  residual activity: 100%
[27]
  residual activity: 100%
[28]
  residual activity: 100%
[29]
  residual activity: 100%
[30]
  residual activity: 100%
[31]
  residual activity: 78%
[32]
  residual activity: 100%
[33]
  residual activity: 100%
[34]
  residual activity: 100%
[35]
  residual activity: 100%
[36]
  residual activity: 100%
[37]
  residual activity: 100%
[38]
  residual activity: 100%
[39]
  residual activity: 100%
[40]
  inhibition: 14.3%
[41]
  residual activity: 100%
[42]
  residual activity: 100%
[43]
  residual activity: 100%
[44]
  inhibition: 37.6%
